In US20230049350A1, “COMPOUNDS FOR TREATING BRAIN CANCER” (Purdue Pharmaceutical Products L.P., priority 2014, published 2023):
Read-outs that look alike come from different tables or passages of the source.

Experiments:
Mz-54 = test: GBM cell line viability IC50, Mz54; assay type: cell-based
Procedure: (§1) In vitro experiments were devised in which a series of GBM cell lines representative for MGMT negative and MGMT positive tumour cells were used.
(§2) Compounds: 1-100 µM EDO-S101, 1-50 µM temozolomide (TMZ), 1-50 µM temozolomide + 500 nM vorinostat, 1-40 µM bendamustine, 1-40 µM bendamustine and 500 nM vorinostat.
(§3) Twelve glioblastoma cell lines representing grade III and IV gliomas and with different expression of MGMT, drug and radiotherapy sensitivity and five patient derived glioblastoma stem, cells were used (see above). Four patient-derived glioblastoma stem cells, kindly provided from J. Gregory Cairncross, and Samuel Weiss at the Hotchkiss Brain Institute, Faculty of Medicine, University of Calgary, Calgary, Alberta, Canada and one luciferase transfected, PTC#8, from Prof Angelo Vescovi, University la Bicocca, Milan were cultured in defined culture serum free medium (SFM) and in non-adherent spheres culture. Cells were resuspended in DMEM/F12 media without serum supplemented with 20 ng/ml epidermal growth factor (Sigma-Aldrich), 20 ng/ml basic fibroblast growth factor (Sigma-Aldrich), B-27 supplement 1X (Gibco, Life Technologies), and antibiotics. Treatment with EDO-S101 was added straight after plating 3×10^3 cells in 96-well plates with the stem cells media. Spheres were counted 5 days after treatment under an inverted microscope at ×4 magnification. A sphere was counted if it had at least 15 cells.
(§4) Cells were seeded at a density of 2 × 10^4 cells/ml in 24 well plates. Cells were left to attach and grow in 5% FCS DMEM for 24 h. […] Cells trypsinized and resuspended in 1.0 ml of saline were counted using the NucleoCounterTM NC-100 (automated cell counter systems, Chemotec, Cydevang, DK) in order to evaluate cell viability. […] IC50 values were calculated by the GraFit method (Erithacus Software Limited, Staines, UK). Cell viability was measured with the 3-(4,5 dimethylthiazol-2-yl)-2,5-diphenyl tetrazolium bromide (MTT; Sigma-Aldrich) assay.
(§5) IC50 and IC20 values for all twelve cell lines against bendamustine and vorinostat were also determined as described above. […]

[1] = tested on: MB-468 breast cancer cells; test: Murine model for metastatic breast cancer of the brain, intracerebral MB-468; assay type: in vivo, mice; conditions: MB-468 intracerebral; for median survival: single iv dose day +4, EDO-S101 60 mg/kg, bendamustine 50 mg/kg, controls 55 days
Procedure: The procedure of Example 3 was repeated, except the murine models were created with 1×10^5 luciferase-transfected MB-468 breast cancer cells to create a […]. EDO-S101 (60 mg/kg body weight), bendamustine (50 mg/kg body weight) and control was administered intravenously via a tail vein to separate groups of the test mice in a single dose on day +4 post intracerebral implantation of the MB-468 breast cancer cells. […] EDO-S101 therefore appears to be a particularly promising treatment for metastatic brain cancer.

T98G = test: GBM cell line viability IC50, T98G; assay type: cell-based
Procedure: as §1, §2, §3, §4, §5

LN18 = test: GBM cell line viability IC50, LN18; assay type: cell-based; conditions: Homo sapiens, LN-18
Procedure: as §1, §2, §3, §4, §5

SW1783 = test: GBM cell line viability IC50, SW1783; assay type: cell-based; conditions: Homo sapiens
Procedure: as §1, §2, §3, §4, §5

A172 = test: GBM cell line viability IC50, A172; assay type: cell-based; conditions: Homo sapiens, A 172
Procedure: as §1, §2, §3, §4, §5

SNB19 = test: GBM cell line viability IC50, SNB19; assay type: cell-based; conditions: Homo sapiens, SNB-19
Procedure: as §1, §2, §3, §4, §5

U138MG = test: GBM cell line viability IC50, U138; assay type: cell-based; conditions: Homo sapiens, U138-MG
Procedure: as §1, §2, §3, §4, §5

LN228 = test: GBM cell line viability IC50, LN228/LN229; assay type: cell-based; conditions: Homo sapiens, LN-229
Procedure: as §1, §2, §3, §4, §5

U118MG = test: GBM cell line viability IC50, U118; assay type: cell-based; conditions: Homo sapiens, U-118-MG
Procedure: as §1, §2, §3, §4, §5

U373MG (Uppsala) = test: GBM cell line viability IC50, U373; assay type: cell-based; conditions: Homo sapiens, U373 MG
Procedure: as §1, §2, §3, §4, §5

U87MG = test: GBM cell line viability IC50, U87; assay type: cell-based; conditions: Homo sapiens, U-87 MG
Procedure: as §1, §2, §3, §4, §5

U251-luciferase = test: Orthotopic model of U251-luciferase transfected cells; assay type: in vivo, mice; conditions: for mice with tumours of some grade (percent): control 72.7%
Procedure: Mice isotopically transfected with U251-luciferase in accordance with the procedure of Example 3 were treated with radiotherapy (2 Gy for 5 consecutive days), temozolomide (16 mg/kg for 5 consecutive days, po), radiotherapy and temozolomide (2 Gy for 5 consecutive days and 16 mg/kg for 5 consecutive days, po), EDO-S101 (60 mg/kg, intravenously at days 1, 8 and 15 of the treatment cycle) or control vehicle.
Intracranial tumour growth was monitored with the […] imaging system (Caliper Life Sciences, Hopkinton, MA, USA). Mice were anesthetized with 2% to 4% isofluorane (Baxter, Deerfield, IL, USA) followed by intraperitoneal injections of 150 mg/kg d-luciferin (In Vivo Imaging Solutions). Five animals were measured at the same time and the luminescent camera was set to 1 minute exposure, medium binning, 1 f/stop, blocked excitation filter, and open emission filter. The photographic camera was set to 2 s exposure, medium binning, and 8 f/stop. The field of view was set to 22 cm to capture five mice at once. Serial images were taken on a weekly basis using identical settings. Bioluminescence intensity was quantified using the Living Image software (Caliper Life Sciences).
Before any irradiation mice were anesthetized with a mixture of ketamine (25 mg/ml)/xylazine (5 mg/ml). Anesthetized tumour-bearing mice received a focal irradiation at the dose of 2 Gy for 5 consecutive days. Irradiation was delivered using an X-ray linear accelerator at a dose rate of 200 cGy/min at room temperature. All mice were shielded with a specially designed lead apparatus to allow irradiation to the […]. Mice were kept under these conditions until all irradiation finished.
All images were obtained in the transverse plane using the following sequences: transverse T2-weighted turbo spin-echo (TSE) sequence (repetition time [TR] msec/echo time [TE] msec) 6766/120, number of signal acquired 4, matrix of 192 × 192) applied with a section thickness of […], an intersection gap of 0.0 mm, and a flip angle of 160 °. The field of view was 36 × 60 mm^2, which included the tumour in its entirety with a resultant voxel size of 0.3 × 0.3 × 1.0 mm^3.
Continuous variables were summarized as mean and standard deviation (SD) or as median and 95% Cl for the median. For continuous variables not normally distributed, statistical comparisons between control and treated groups were established by carrying out the Kruskal-Wallis Tests. For continuous variables normally distributed, statistical comparisons between control and treated groups were established by carrying out the ANOVA test or by Student t test for unpaired data (for two comparisons).

[2] = drug alone, 50 days after beginning of treatment

Structure (SMILES) | IC50 (Mz-54) [µM] | median survival [1] [days] | IC50 (LN18) [µM] | IC50 (SW1783; SW1783) [µM] | IC50 (A172) [µM] | IC50 (SNB19) [µM] | IC50 (U138MG) [µM] | IC50 (LN228) [µM] | IC50 (U118MG) [µM] | IC50 (U373MG (Uppsala)) [µM] | IC50 (U87MG) [µM] | mice with tumours of some grade (percent) (U251-luciferase; [2]) [%] | also measured
Cn1c(CCCC(=O)O)nc2cc(N(CCCl)CCCl)ccc21 [bendamustine] | 60 | 62 | 25 | 38 | 55 | 32 | 30 | 35 | 35 | 35 | 50 |  | IC50 (T98G; Homo sapiens, T98G): 52 µM
Cn1nnc2c(C(N)=O)ncn2c1=O [temozolomide] |  |  |  |  |  |  |  |  |  |  |  | 38.5 | IC50 (Mz-54; Mz-54, MGMT pos., no unit in Table 2, read-out: IC50): > 100 µM; IC50 (T98G; Homo sapiens, MGMT positive T98G glioblastoma cell line, read-out: IC50): > 100 µM; IC50 (T98G; T98G, MGMT pos., no unit in Table 2 (µM), read-out: IC50): > 100 µM; IC50 (LN18; LN18, MGMT pos., no unit in Table 2, read-out: IC50): > 100 µM; IC50 (SW1783; SW1783, MGMT neg., no unit in Table 2, read-out: IC50): 80 µM; IC50 (A172; A172, MGMT neg., no unit in Table 2, read-out: IC50): ~100 µM; IC50 (SNB19; SNB19, MGMT neg., no unit in Table 2, read-out: IC50): > 100 µM; IC50 (U138MG; U138MG, MGMT pos., no unit in Table 2, read-out: IC50): > 100 µM; IC50 (LN228; LN228, MGMT neg., no unit in Table 2, read-out: IC50): > 100 µM; IC50 (U118MG; U118MG, MGMT pos., no unit in Table 2, read-out: IC50): > 100 µM; mice displaying lesions at the end of the study (percent) (U251-luciferase; with radiotherapy 2 Gy x 5 days, temozolomide 16 mg/kg po x 5 days): 18.2%; IC50 (U373MG (Uppsala); U373MG (Uppsala), MGMT neg., no unit in Table 2, read-out: IC50): 80 µM; IC50 (U87MG; MGMT negative U87G glioblastoma cell line, read-out: IC50): 20 µM
Cn1c(CCCCCCC(=O)NO)nc2cc(N(CCCl)CCCl)ccc21 [EDO-S101] | 12.7 | 71 | 1.87 | 8.24 | 6.45 | 2.17 | 4.27 | 1.55 | 6.61 | 2.26 | 1.36 | 38.5 | tumour growth ([1]; single iv dose 60 mg/kg day +4): suppression of tumour growth; survival probability versus radiotherapy or temozolomide (U251-luciferase; drug alone, 60 mg/kg iv days 1, 8, 15, FIG. 17): significantly greater; mice displaying a large lesion (number) (U251-luciferase; [2]): 1 of the 13; mice with tumours of some grade (number) (U251-luciferase; drug alone, 50 days after beginning of treatment, control 8 out of 11): 5 out of 13
